Experimental data taken from patent US20250255848A1, “SUBSTITUTED 6,7-DIHYDRO-5H-BENZO[7]ANNULENE DERIVATIVES, PROCESSES FOR THEIR PREPARATION AND THERAPEUTIC USES THEREOF” (SANOFI, priority 2022, published 2025).

Molecular target: ERα (Homo sapiens (Human), UniProt P03372)
Assay: Estrogen receptor degradation activity: breast cancer cell ERα in cell western assay
Type: cell-based
Conditions: MCF7 cells; for % Degradation At 0.3 μM: 4 hours, normalised to fulvestrant 0.1 μM and DMSO; for IC50: 4 hours post compound addition, concentration which degrades 50% of the estrogen receptor
Summary of the method: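 MCF7 cells in phenol-red-free medium with 5% charcoal-stripped FBS, treated 4 h with 9-point 1:5 dilutions (0.3-0.0000018 μM final). ERα measured by in-cell western (anti-ER antibody, Alexa 488), normalized to Syto-64 DNA stain; % decrease scaled DMSO to 0.1 μM fulvestrant, IC50 in nM.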

ERα, sequence (P03372 whole entry): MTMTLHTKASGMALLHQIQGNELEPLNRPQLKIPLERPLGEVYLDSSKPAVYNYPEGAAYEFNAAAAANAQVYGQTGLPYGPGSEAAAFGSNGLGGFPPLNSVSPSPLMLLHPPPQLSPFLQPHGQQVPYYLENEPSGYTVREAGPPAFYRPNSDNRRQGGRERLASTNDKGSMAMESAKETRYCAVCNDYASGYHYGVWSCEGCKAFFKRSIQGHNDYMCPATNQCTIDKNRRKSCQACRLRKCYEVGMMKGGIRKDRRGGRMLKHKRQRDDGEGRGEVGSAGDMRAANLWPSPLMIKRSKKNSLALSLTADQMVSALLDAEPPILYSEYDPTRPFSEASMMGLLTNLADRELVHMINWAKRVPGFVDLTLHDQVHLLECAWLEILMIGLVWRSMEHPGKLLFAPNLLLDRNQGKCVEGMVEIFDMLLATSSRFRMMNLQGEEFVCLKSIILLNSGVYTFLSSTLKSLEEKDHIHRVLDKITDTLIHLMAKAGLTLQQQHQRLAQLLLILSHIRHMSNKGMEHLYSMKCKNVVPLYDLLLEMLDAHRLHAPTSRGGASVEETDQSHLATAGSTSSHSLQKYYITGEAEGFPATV

| Compound | % Degradation At 0.3 μM [%] | IC50 [pM] |
| --- | --- | --- |
| CCc1cccc(C2=C(c3ccc(C=C4CN(CCCF)C4)cc3)c3ccc(C(=O)O)cc3CCC2)c1C(F)(F)F [Compound 8, 8-(3-ethyl-2-(trifluoromethyl)phenyl)-9-(4-((1-(3-fluoropropyl)azetidin-3-ylidene)methyl)phenyl)-6,7-dihydro-5H-benzo[7]annulene-3-carboxylic acid] | 93 | 800 |
| O=C(O)c1ccc2c(c1)CCCC(c1c(F)cccc1C(F)(F)F)=C2c1ccc(C=C2CN(CCCF)C2)cc1 [Compound 20, 8-(2-fluoro-6-(trifluoromethyl)phenyl)-9-(4-((1-(3-fluoropropyl)azetidin-3-ylidene)methyl)phenyl)-6,7-dihydro-5H-benzo[7]annulene-3-carboxylic acid] | 94 | 600 |
| COc1ccc(C2=C(c3ccc(C=C4CN(CCCF)C4)cc3)c3ccc(C(=O)O)cc3CCC2)c(C(F)F)c1 [Compound 37, 8-(2-(difluoromethyl)-4-methoxyphenyl)-9-(4-((1-(3-fluoropropyl)azetidin-3-ylidene)methyl)phenyl)-6,7-dihydro-5H-benzo[7]annulene-3-carboxylic acid] | 91 | 600 |

Further lines, results first:

| % Degradation At 0.3 μM [%] | IC50 [pM] | Compound |
| --- | --- | --- |
| 94 | 600 | O=C(O)c1ccc2c(c1)CCCC(c1ccc(C(F)F)cc1)=C2c1ccc(C=C2CN(CCCF)C2)cc1 [Compound 55, 8-(4-(difluoromethyl)phenyl)-9-(4-((1-(3-fluoropropyl)azetidin-3-ylidene)methyl)phenyl)-6,7-dihydro-5H-benzo[7]annulene-3-carboxylic acid] |
| 94 | 400 | Cc1cc(C(F)(F)F)c(C)cc1C1=C(c2ccc(C=C3CN(CCCF)C3)cc2)c2ccc(C(=O)O)cc2CCC1 [Compound 78, 8-(2,5-dimethyl-4-(trifluoromethyl)phenyl)-9-(4-((1-(3-fluoropropyl)azetidin-3-ylidene)methyl)phenyl)-6,7-dihydro-5H-benzo[7]annulene-3-carboxylic acid] |
| 95 | 700 | Cc1cccc(OC(F)(F)F)c1C1=C(c2ccc(C=C3CN(CCCF)C3)cc2)c2ccc(C(=O)O)cc2CCC1 [Compound 77, 9-(4-((1-(3-fluoropropyl)azetidin-3-ylidene)methyl)phenyl)-8-(2-methyl-6-(trifluoromethoxy)phenyl)-6,7-dihydro-5H-benzo[7]annulene-3-carboxylic acid] |
| 94 | 400 | COc1cccc(C2=C(c3ccc(C=C4CN(CCCF)C4)cc3)c3ccc(C(=O)O)cc3CCC2)c1C(F)(F)F [Compound 52, 9-(4-((1-(3-fluoropropyl)azetidin-3-ylidene)methyl)phenyl)-8-(3-methoxy-2-(trifluoromethyl)phenyl)-6,7-dihydro-5H-benzo[7]annulene-3-carboxylic acid] |
